Assay results published in patent US20090325863A1, “Somatostatin analogs and IGF-I inhibition for breast cancer prevention” (priority 2008, published 2009).
Entries after “also recorded” stand apart in the source; their conditions may differ. Marks after values point to notes of the source that are not given here. Bridges are numbered along the chain shown (N, C = ends). Where no end group is shown, it is not given here.

How the values were obtained:
[1] = tested on: mammary hyperplasia induced by hGH and E2; experiment: Mammary hyperplasia model induced by hGH and E2, counts in histological sections; assay type: in vivo, rat; conditions: for Total# / Mild# / Moderate# / Florid# / DH#: Table 3; for Total#: SOM230 30 mcg/h/kg, Octreotide 30 mcg/hr/kg, Tamoxifen 30 mg/21 day release pellet, GH + E2 control 88.3 ± 6.3; for Mild# / Moderate# / Florid# / DH#: same doses; for Mild#: GH + E2 control 4.4 ± 0.6; for Moderate#: GH + E2 control 5.3 ± 0.6; for Florid#: GH + E2 control 10 ± 0.7; for DH#: GH + E2 control 19.7 ± 1.5; for inhibitory effect on hyperplasia compared with SOM230 alone (in words): hGH+E2 model, 7 days, no dose response comparison
From the text: To test whether SOM230, a drug that inhibits IGF-I action on the breast, was effective, we implemented a model of hyperplasia and then determined whether the hyperplasia could be inhibited by SOM230. We administered human growth hormone (600 mcg in alzet pumps) for a week, and gave this together with estradiol (an estrogen). At the end of 7 days florid hyperplasia developed. Mammary hyperplasia was modeled by treating hypophysectomized, oophorectomized female rats with high doses human growth hormone (hGH) (600 μg in Alzet pumps) and follicular phase concentrations of estradiol (E2) administered in silastic capsules for 7 days. In the absence of hGH, these animals would not undergo mammary development. In animals receiving E2 alone, there was virtually no hyperplasia. When hGH was added to E2 there were more glands (42.2±1.4 vs. 71.9±5.4, E2 vs. E2+hGH, respectively). There was no florid hyperplasia with E2 treatment. When hGH was given also, 26.6% of the glands were hyperplastic, with 50% of those being floridly hyperplastic, 7% moderate hyperplasia and 5.9% mild hyperplasia. […] This is shown in histological sections (FIG. 1), graphically (FIG. 2) and in tabular form below (TABLE 1).
Background: Antiestrogens or aromatase inhibitors are used for breast cancer chemoprevention. These treatments cause unpleasant side effects including hot flashes and vaginal dryness. We have previously shown that IGF-I is required to permit estrogen and progesterone action in the mammary gland. […] Menopausal symptoms would not likely to occur with SOM230 since estrogen is not lowered. Material and Methods: We have approached this issue in several ways. 1) We developed a model of hyperplasia in hypophysectomized and oophorectomized female rats. Hyperplasia was induced by treatment with 600 mcg hGH and follicular phase concentrations of estradiol. Hyperplasia was assessed histologically in sections of mammary gland. 2) To assess translatability to humans we assessed cell proliferation and apoptosis in normal human breast from reduction mammoplasties and samples of usual hyperplasia. 3) We also determined availability of SST receptors in samples of atypical ductal hyperplasia and DCIS, and 4) We have begun to determine whether SOM230 will prevent hyperplasia in humans at risk for breast cancer as it does in rats.
The degree of hyperplasia was analyzed in 3 histological sections at different levels in 3 test animals given GH+E2. The different types of hyperplasia were counted. For example, the total mean number of ducts was 88.3. Of those ducts, there were 19.7 or 22.3% of total ducts that were hyperplastic. The breakdown was a mean of 10 ducts with florid hyperplasia (lumen is distended and mostly obliterated by epithelial cells), a mean of 5.3 ducts with moderate hyperplasia (an increase in cell layers to >4 cells thick), and a mean of 4.4 characterized as mild hyperplasia (no more than 4 cell thickness).
There were 4 additional treatment groups and one E2 treated control group.

[2] = tested on: pYIRS-1 (phosphorylated IRS-1), product of IGF-I action; experiment: Immunostaining for phosphorylated IRS-1 in mammary gland, hGH+E2 model; assay type: in vivo, rat; conditions: hGH+E2 treated animals; staining most intense with hGH+E2
From the text: FIG. 12 depicts immunostaining for pYIRS-1 (phosphorylated IRS-1) in a representative E2 treated control (upper left), an hGH+E2 treated animal (upper right), an hGH+E2+SOM230 treated animal (lower left) and an hGH+E2+tamoxifen treated animal (lower right). The intensity of staining parallels IGF-I action as phosphorylated IRS-1 is a product of IGF-I action. In this study, staining (brown color) was most intense in response to hGH+E2 and was inhibited by both SOM230 and tamoxifen. […] This reflection of inhibition of IGF-I activity also supports the greater inhibitory effect of SOM230 over that of tamoxifen.

[3] = tested on: hGH induced TEB formation; experiment: Hyperplastic terminal endbuds (TEBs) in mammary gland whole mounts, hGH+E2 model; assay type: in vivo, rat; conditions: hGH+E2, 7 days; reduced from 86.5 (86) TEBs in hGH+E2 control
From the text: At the end of 7 days one lumbar mammary gland was removed for whole mount analysis and the other for histological analysis. Hyperplastic TEBs were counted in the whole mounts. […] Representative photomicrographs of the whole mounts are provided in FIG. 5 and suppression by the different treatments is shown graphically in FIG. 6.

[4] = tested on: development of breast cancer; conditions: women with hyperplastic lesions of the breast; cited from earlier work
mammary development = experiment: Mammary development of CD female mice (TEB, branch, area in whole mounts); assay type: in vivo
Procedure: The effect of PQ401 and Somatostatin 14 (SS14) on mammary development of CD female mice was determined. FIG. 10 depicts control animals at 21 and 28 days versus 28 day old animals treated with PQ401 for 7 days and 28 day old animals treated with SS14 for 7 days.

CC/C(=C(\c1ccccc1)c1ccc(OCCN(C)C)cc1)c1ccccc1 [Tamoxifen]
Total# [1]: 74.2 ± 7.7 | Mild# [1]: 3.6 ± 0.4 | Moderate# [1]: 4.8 ± 0.6 | Florid# [1]: 4.5 ± 0.6^e | DH# [1]: 12.4 ± 1.5 | inhibitory effect on hyperplasia compared with SOM230 alone (in words) [1]: significantly less effective than SOM230 | inhibitory effect on hyperplasia compared with SOM230 alone (in words) ([1]; listed as tamoxifen): significantly lower than SOM230 alone | intensity of pYIRS-1 immunostaining [2]: inhibited; also recorded: more intense than in the SOM230 treated one | number of hyperplastic TEBs in whole mounts [3]: 49 | prevention of the development of cancer [4]: about 50%

Octreotide
Total# [1]: 76.3 ± 7.3 | Mild# [1]: 4.6 ± 0.8 | Moderate# [1]: 5.8 ± 1.0 | Florid# [1]: 5.0 ± 0.8^e | DH# [1]: 15.4 ± 2.6 | inhibitory effect on hyperplasia compared with SOM230 alone (in words) [1]: significantly lower than SOM230 alone | number of hyperplastic TEBs in whole mounts [3]: 60

Somatostatin 14: Somatostatin 14 (SS14) (AGCKNFFWKTFTSC; disulfide 3-14; ends not checked; UniProt P61278 103-116, looked up)
TEB (number) (mammary development; 28 day old CD female mice treated 7 days, PQ401 100/kgbw ip thrice weekly, SS14 15 mcg/hr/Kg Alzet pump, 28d control 18.6 ± 1.5): 18.5 ± 1.5 | area % (mammary development; same treatment, 28d control 52.2 ± 2.0, 21d control 23 ± 3.2): 36.3 ± 6.2%
